What was measured:
[1] = target: T1, LXR (Homo sapiens, UniProt Q13133); assay: Antagonizing action on LXR by luciferase assay; type: cell-based; conditions: overall finding from SREBP-1c, SREBP-1, SCD-1, FAS, ACC1, 2, triacylglycerol and LXR luciferase measurements in HepG2 cells
T1 construct: expressed in transfected cells; host or cells: HepG2 (human liver cancer-derived)
T1 sequence (Q13133 1-447): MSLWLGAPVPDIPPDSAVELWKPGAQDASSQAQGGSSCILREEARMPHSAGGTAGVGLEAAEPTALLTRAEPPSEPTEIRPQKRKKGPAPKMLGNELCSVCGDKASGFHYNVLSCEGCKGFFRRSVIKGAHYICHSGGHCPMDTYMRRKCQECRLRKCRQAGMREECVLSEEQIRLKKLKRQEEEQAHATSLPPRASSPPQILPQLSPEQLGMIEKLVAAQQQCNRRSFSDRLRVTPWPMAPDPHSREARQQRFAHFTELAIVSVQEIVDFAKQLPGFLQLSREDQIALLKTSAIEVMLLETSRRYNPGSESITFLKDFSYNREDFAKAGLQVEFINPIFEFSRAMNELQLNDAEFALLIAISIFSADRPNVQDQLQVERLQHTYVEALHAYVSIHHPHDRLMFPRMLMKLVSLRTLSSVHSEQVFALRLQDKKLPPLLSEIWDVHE
Method: In addition, the protein expression level of immature and mature SREBP-1c was measured. Cells treated as mentioned above were dispersed in buffer A (250 mM sucrose, 10 mM HEPES-KOH, 10 mM KCl, 1.5 mM MgCl2, 1 mM EDTA-Na, 1 mM EGTA-Na, pH 7.6) containing a protease inhibitor, passed 20 times through a 23 gauge injection needle, and centrifuged (1,000×g, 4° C., 5 min) to separate into supernatant 1 and precipitate 1. The precipitate 1 was re-dissolved in buffer B (20 mM HEPES-KOH, 0.42 M NaCl, 2.5% glycerol, 1.5 mM MgCl2, 1 mM EDTA-Na, 1 mM EGTA-Na, pH 7.6), and centrifuged (10^5×g, 4° C., 15 min). The obtained supernatant 2 was used as a nuclear fraction (including mature form). The supernatant 1 was further centrifuged (10^5×g, 4° C., 15 min), and the obtained precipitate 2 was dissolved in cell lysate (10 mM Tris-HCl, 100 mM NaCl, 1% SDS, 1 mM EDTA-Na, 1 mM EGTA-Na) and used as a membrane fraction (including immature form). Using these as samples, measurement was performed by Western blot method using anti-SREBP-1 polyclonal antibody (Santa Cruz). Using Dual luciferase system (Promega), antagonizing action on LXR was evaluated by luciferase assay. p3xIR1-tk-Luc, pCMX-hLXRa, pRL-CMX were introduced into HepG2 cell. After culture in a 0.1% BSA-containing serum-free medium containing various fatty acids and T0901317 for 24 hr, the luciferase activity was measured.

[2] = target: T2, PPARγ (Homo sapiens, UniProt P37231); assay: PPARγ ligand activity, GAL4-PPARγ reporter luciferase assay in CV-1 cells; type: cell-based; conditions: 24 hr incubation, KetoA and HYA each at 30 μM, other fatty acids by a similar method
T2 construct: expressed in transfected cells; host or cells: CV-1 (African green monkey kidney)
T2 sequence (P37231 238-503 limits assumed): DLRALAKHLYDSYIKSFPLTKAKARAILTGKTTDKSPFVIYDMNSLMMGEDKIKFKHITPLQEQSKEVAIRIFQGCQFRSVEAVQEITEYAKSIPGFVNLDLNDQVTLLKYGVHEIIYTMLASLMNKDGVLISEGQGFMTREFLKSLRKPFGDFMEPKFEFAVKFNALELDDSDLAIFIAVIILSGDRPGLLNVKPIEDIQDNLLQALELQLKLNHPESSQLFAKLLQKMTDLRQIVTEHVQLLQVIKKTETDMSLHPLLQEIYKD
Method: (§1) To evaluate the function of oxo fatty acid and the like, PPARα, γ-activating action was measured first. The measurement was performed in reference to Nobuyuki Takahashi et al., FEES Letters 514 (2002) p. 315-322, “Dual action of isoprenols from herbal medicines on both PPARgamma and PPARalpha in 3T3-L1 adipocytes and HepG2 hepatocytes.”, the section of Materials and Methods “Reporter plasmids and luciferase assays”. To be specific, a plasmid containing DNA encoding a fused protein of PPARα, γ ligand binding region and GAL4 DNA binding region (pM-hPPARα or pM-hPPARγ), a reporter plasmid containing GAL4 binding DNA sequence linked to luciferase (p4xUASg-tk-luc), and internal control (pRL-CMV) to standardize transfection efficiency were introduced into CV-1 cell derived from the kidney of African green monkey. The ligand described below was added to the cells and, after incubation for 24 hr, luciferase activity was measured. As a ligand, KetoA and HYA were each added at 30 μM.
(§2) The concentration of the sample was adjusted with ethanol. Ethanol was used as a negative control, […], and GW7647 (10 nM) and Troglitazone (5 μM) were used as […].

[3] = target: T3, PPARα (Homo sapiens, UniProt Q07869); assay: PPARα ligand activity, GAL4-PPARα reporter luciferase assay in CV-1 cells; type: cell-based; conditions: 24 hr incubation, KetoA and HYA each at 30 μM, other fatty acids by a similar method
T3 construct: expressed in transfected cells; host or cells: CV-1 (African green monkey kidney)
T3 sequence (Q07869 239-466 limits assumed): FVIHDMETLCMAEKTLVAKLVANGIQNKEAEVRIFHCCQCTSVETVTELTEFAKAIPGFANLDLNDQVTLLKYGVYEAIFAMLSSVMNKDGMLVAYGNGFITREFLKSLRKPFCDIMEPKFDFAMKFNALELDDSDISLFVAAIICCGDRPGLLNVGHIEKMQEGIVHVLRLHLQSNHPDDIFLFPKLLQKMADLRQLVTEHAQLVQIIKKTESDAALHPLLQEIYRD
Method: as §1, §2

[4] = system: HepG2 cells; assay: Effect on LXR agonist-induced expression of fatty acid synthesis genes, real-time PCR; type: cell-based, human; conditions: 10 nM T0901317 alone, 24 hr
[5] = system: HepG2 cells; assay: Intracellular triacylglycerol accumulation by LXR agonist; type: cell-based, human; conditions: 10 nM T0901317 alone, 24 hr
Method: HepG2 cells (2.0×10^5 cells/mL) were cultured in DMEM medium containing 10% FES for 24 hr, and the medium was exchanged with 0.1% BSA-containing DMEM medium containing 10 nM LXR agonist T0901317 (Cayman Chemicals) and 60 μM various fatty acid. After culture for 24 hr, the cells were recovered, and total RNA was extracted using Sepasol reagent (Nacalai Tesque). After DNase treatment, reverse transcription was performed using SuperScriptII (Invitrogen) to give a cDNA solution. Using SYBR Green Mix (Bio-Rad, Richmond, Calif.) and gene-specific primer (Table 1), real-time PCR was performed as follows.
1. Reaction at 96° C., 15 min, 2. reaction at 96° C., 15 sec, 3. reaction at 60° C. for 30 sec, 4. measurement of fluorescence, 5. 2-4 were repeated 40 times, 6. the melting curve was measured from 65° C. to 95° C. at 0.4° C. intervals. As the internal standard, 18S rRNA was used. The genes involved in the fatty acid synthesis as measured were Sterol regulatory element binding protein-1c (SREBP-1c), Stearoyl coenzyme A desaturase-1 (SCD-1), Fatty acid synthase (FAS), and Acetyl CoA carboxylase-1 and -2 (ACC-1, 2). As for the amount of accumulated intracellular TG, the lipid was extracted with chloroform-methanol, and quantified by triglyceride-′E Test Wako (Wako Pure Chemical Industries, Ltd.).

Row | Structure (SMILES) | lipid synthesis suppressive action by the antagonizing action on LXR [1] | PPARγ agonist activity (relative luciferase activity) [2] | PPARα agonist activity (relative luciferase activity) [3] | expression of SREBP-1c mRNA [4] | intracellular triacylglycerol level [5]
1 | CCCCCCCCC(O)CCCCCCCCC(=O)O (stereo not shown) [HYB, 10-hydroxyoctadecanoic acid] | lipid synthesis suppressive action | – | PPARα agonist activity | – | –
2 | CCCCCC/C=C/C(=O)CCCCCCCCC(=O)O [KetoC, 10-oxo-trans-11-octadecenoic acid] | – | PPARα and γ agonist activity | PPARα and γ agonist activity | – | –
3 | CCCCCCC(O)CC(O)CCCCCCCCC(=O)O (stereo not shown) [rHYA, 10,12-dihydroxyoctadecanoic acid] | – | – | PPARα agonist activity | – | –
4 | CCCCCC[C@@H](O)C/C=C\CCCCCCCC(=O)O [RA, ricinoleic acid] | lipid synthesis suppressive action | – | PPARα agonist activity | – | –
5 | CCCCCCCCC(=O)CCCCCCCCC(=O)O [KetoB, 10-oxooctadecanoic acid] | – | – | PPARα agonist activity | – | –
6 | O=S(=O)(c1ccccc1)N(CC(F)(F)F)c1ccc(C(O)(C(F)(F)F)C(F)(F)F)cc1 [T0901317, reference compound] | – | – | – | about 7 fold | increased
7 | CCCCCCC(O)CCCCCCCCCCC(=O)O (stereo not shown) [rHYB, 12-hydroxyoctadecanoic acid] | lipid synthesis suppressive action | – | PPARα agonist activity | – | –

Continued, in another order:

Row | lipid synthesis suppressive action by the antagonizing action on LXR [1] | PPARγ agonist activity (relative luciferase activity) [2] | PPARα agonist activity (relative luciferase activity) [3] | Structure (SMILES) | expression of SREBP-1c mRNA [4] | intracellular triacylglycerol level [5]
8 | lipid synthesis suppressive action | PPARγ agonist activity | – | CC/C=C\C/C=C\CC(=O)CCCCCCCCC(=O)O [αKetoA, 10-oxo-cis-12,cis-15-octadecadienoic acid] | – | –
9 | lipid synthesis suppressive action | – | PPARα agonist activity | CCCCCCC(=O)CCCCCCCCCCC(=O)O [rKetoB, 12-oxooctadecanoic acid] | – | –
10 | – | PPARα and γ agonist activity | PPARα and γ agonist activity | CC/C=C\CC/C=C/C(=O)CCCCCCCCC(=O)O [αKetoC, 10-oxo-trans-11,cis-15-octadecadienoic acid] | – | –
11 | lipid synthesis suppressive action | PPARγ agonist activity | – | CCCCC/C=C\CC(=O)CC/C=C\CCCCC(=O)O [γKetoA, 10-oxo-cis-6,cis-12-octadecadienoic acid] | – | –
12 | – | – | PPARα agonist activity | CC/C=C\C/C=C\CC(O)CCCCCCCCC(=O)O (stereo not drawn) [αHYA, 10-hydroxy-cis-12,cis-15-octadecadienoic acid] | – | –
13 | lipid synthesis suppressive action | – | PPARα agonist activity | CCCCC/C=C\CC(O)CC/C=C\CCCCC(=O)O (stereo not drawn) [γHYA, 10-hydroxy-cis-6,cis-12-octadecadienoic acid] | – | –
14 | – | PPARα and γ agonist activity | PPARα and γ agonist activity | CCCCCC/C=C/C(=O)CC/C=C\CCCCC(=O)O [γKetoC, 10-oxo-cis-6,trans-11-octadecadienoic acid] | – | –

— patent publication US9707200B2, “Metabolism-improving agent comprising rare fatty acid” (KYOTO UNIVERSITY, priority 2012, dated 2017)
